Laboratory results published in patent US8283465B2, “Triazolopyridine compound, and action thereof as prolyl hydroxylase inhibitor or erythropoietin production-inducing agent” (Japan Tobacco Inc., priority 2009, dated 2012).
Where a name gives a salt, the structure may show the parent alone.

Legend:
[1] = system: human EPO production, Hep3B cells; experiment: Human EPO production activity in Hep3B cells (EPO-ELISA of culture supernatant); format: cell-based; conditions: for EC50: Homo sapiens, 24 hr incubation, values consisting solely of numbers, read-out: EC50 (μM) in vitro, human EPO production activity; for production activity (%) at 30 μM in vitro, human EPO: 24 hr, values containing %, relative to maximum production
Protocol: The activity of the test compound on human EPO production was measured using Hep3B (AMC) established from human liver-derived cell line.
Hep3B cells were cultured in Eagle-MEM medium containing 10% fetal bovine serum, and the test compound was diluted with dimethyl sulfoxide (DMSO).
Hep3B cells were cultured in a 96-well plate, and a test compound was added at each concentration 24 hr later. After incubation at 37° C. for 24 hr, the culture supernatant was collected. The concentration of human EPO produced in the culture supernatant was measured using a human EPO-ELISA kit (manufactured by StemCell Technologies, 01630) according to the manufacturer's explanation, and the human EPO production activity (%) of the test compound was calculated based on the maximum value of production under the above conditions and the value without addition of the test compound. […] In these Tables, the values consisting solely of numbers show EC50 (μM) and those containing % show human EPO production activity (%) at […].

human PHD2 = target: T1, human PHD2 (Homo sapiens, UniProt Q9GZT9); experiment: Measurement of human PHD inhibitory activity (TR-FRET, hydroxylation of HIF-1α partial peptide); format: biochemical; conditions: for IC50: human PHD2 enzyme 1 nM, 25° C. 30 min, values consisting solely of numbers, read-out: IC50 (μM) in vitro, human PHD inhibitory activity
T1 construct: made in house; host or cells: Sf9 insect cells (baculovirus, pVL1393 vector)
T1 sequence (Q9GZT9 whole entry): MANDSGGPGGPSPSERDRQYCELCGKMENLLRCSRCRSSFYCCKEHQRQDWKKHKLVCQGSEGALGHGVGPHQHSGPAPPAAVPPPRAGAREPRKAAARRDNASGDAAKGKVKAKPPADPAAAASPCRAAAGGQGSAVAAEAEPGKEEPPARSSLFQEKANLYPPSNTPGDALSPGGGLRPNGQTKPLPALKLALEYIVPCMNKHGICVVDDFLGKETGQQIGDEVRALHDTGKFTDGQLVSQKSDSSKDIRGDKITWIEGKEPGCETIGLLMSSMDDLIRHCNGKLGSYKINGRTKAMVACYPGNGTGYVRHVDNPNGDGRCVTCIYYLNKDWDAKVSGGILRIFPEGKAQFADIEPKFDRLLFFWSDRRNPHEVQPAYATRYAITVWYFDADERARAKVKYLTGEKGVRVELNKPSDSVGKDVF
Protocol: Human PHD2 was expressed in insect cell (Sf9 cell). […] The vector and baculovirus were cotransfected into Sf9, and human PHD2 expression baculovirus was isolated in Sf9. By using the virus, human PHD2-expressed cell was prepared. […] The cell lysate was flowed into a column filled with ANTI-FLAG M2 Affinity Gel Freezer Safe (SIGMA), washed, and the N-terminal FLAG-tag-added human PHD2 was eluted and collected.
VBC complex (VHL/Elongin B/Elongin C) was expressed in Escherichia coli (BL21(DE3)). […] After these expression vectors were transfected into Escherichia coli (BL21(DE3)), Escherichia coli was cultured at 37° C. in the medium containing IPTG. The collected Escherichia coli was disrupted by sonication and flowed into a column filled with Ni-NTA superflow (QIAGEN), washed, and the product was eluted and collected. The eluate was flowed into a column filled with Glutathione Sepharose 4B, washed, and the product was eluted and collected. […]
As for human PHD2 enzyme activity, hydroxylation of proline residue contained in the 19 residues of the partial peptide based on the sequence of HIF-1α as a substrate was measured by TR-FRET (Time-Resolved Fluorescence Resonance Energy Transfer) method.
A test compound and a substrate solution were added to a 96-well plate. The reaction was started by addition of a human PHD2 enzyme solution (final concentration 1 nM) to the reaction system. After incubation at 25° C. for 30 min, a stop solution containing EDTA was added, and a VBC complex solution containing europium (Eu) and Xlent was added, and the amount of hydroxylated proline residue was quantified by time-resolved fluorescence spectroscopy. The time-resolved fluorescence in each well was measured, and the human PHD inhibitory activity (%) of the test compound was calculated based on the values of enzyme non-addition well and test compound non-addition well.

O=C(O)CNC(=O)c1c(O)cc(-c2cc(C(F)(F)F)cc(C(F)(F)F)c2)c2ncnn12 [Example 97, {[8-(3,5-bis-trifluoromethyl-phenyl)-6-hydroxy[1,2,4]triazolo[1,5-a]pyridine-5-carbonyl]amino} acetic acid hydrochloride] was tested, and the EC50 [1] was 3.5 µM and the IC50 (human PHD2) was 0.13 µM.
Work on C[C@H](NC(=O)c1c(O)cc(-c2cc(F)cc(F)c2)n2ncnc12)C(=O)O [Example 67, (S)-2-{[5-(3,5-difluorophenyl)-7-hydroxy[1,2,4]triazolo[1,5-a]pyridine-8-carbonyl]amino} propionic acid hydrochloride] yielded an EC50 [1] of 14.3 µM and an IC50 (human PHD2) of 0.9 µM.
With CCC(CC)Cc1cc(O)c(C(=O)NCC(=O)O)c2ncnn12 [Example 45, {[5-(2-ethylbutyl)-7-hydroxy[1,2,4]triazolo[1,5-a]pyridine-8-carbonyl]amino}acetic acid hydrochloride] the EC50 [1] was 9.9 µM and the IC50 (human PHD2) was 0.92 µM.
Work on O=C(O)CNC(=O)c1c(O)cc(-c2cc(F)c(F)c(F)c2)n2ncnc12 [Example 49, {[7-hydroxy-5-(3,4,5-trifluorophenyl)[1,2,4]triazolo[1,5-a]pyridine-8-carbonyl]amino}acetic acid hydrochloride] yielded an EC50 [1] of 11.7 µM and an IC50 (human PHD2) of 0.24 µM.
CCC(CC)c1cc(O)c(C(=O)NCC(=O)O)c2ncnn12 [Example 40, {[5-(1-ethylpropyl)-7-hydroxy[1,2,4]triazolo[1,5-a]pyridine-8-carbonyl]amino}acetic acid hydrochloride] was tested, and the EC50 [1] was 17.7 µM and the IC50 (human PHD2) was 0.87 µM.
Molecule O=C(O)CNC(=O)c1c(O)cc(CCc2ccccc2)n2nc(C3CC3)nc12 [Example 15, [(2-cyclopropyl-7-hydroxy-5-phenethyl[1,2,4]triazolo[1,5-a]pyridine-8-carbonyl)amino]acetic acid hydrochloride] has an EC50 [1] of 29.1 µM and an IC50 (human PHD2) of 1.8 µM.
Work on O=C(O)CNC(=O)c1c(O)cc(-c2ccc(F)c(Cl)c2)n2ncnc12 [Example 23, {[5-(3-chloro-4-fluorophenyl)-7-hydroxy[1,2,4]triazolo[1,5-a]pyridine-8-carbonyl]amino}acetic acid hydrochloride] yielded an EC50 [1] of 7.8 µM and an IC50 (human PHD2) of 0.19 µM.
Cl.O=C(O)CNC(=O)c1c(O)cc(Cc2ccccc2)c2ncnn12 [Example 86, [(8-benzyl-6-hydroxy[1,2,4]triazolo[1,5-a]pyridine-5-carbonyl)amino] acetic acid hydrochloride] was tested, and the “production activity (%) at 30 μM in vitro, human EPO” value (shortened to “production activity (%) at 30 μM”) [1] was 6% and the IC50 (human PHD2) was 0.83 µM.
With O=C(O)CNC(=O)c1c(O)cc(CCC2CCCC2)n2ncnc12 [Example 60, {[5-(2-cyclopentylethyl)-7-hydroxy[1,2,4]triazolo[1,5-a]pyridine-8-carbonyl]amino} acetic acid hydrochloride] the EC50 [1] was 8.4 µM and the IC50 (human PHD2) was 0.74 µM.
In the case of CC(C)Cc1cc(O)c(C(=O)NCC(=O)O)c2ncnn12 [Example 43, [(7-hydroxy-5-isobutyl[1,2,4]triazolo[1,5-a]pyridine-8-carbonyl)amino]acetic acid], the EC50 [1] is reported as 23.6 µM and the IC50 (human PHD2) is reported as 0.93 µM.
Work on O=C(O)CNC(=O)c1c(O)cc(C2CCCCCC2)n2ncnc12 [Example 58, [(5-cycloheptyl-7-hydroxy[1,2,4]triazolo[1,5-a]pyridine-8-carbonyl)amino] acetic acid hydrochloride] yielded an EC50 [1] of 4.7 µM and an IC50 (human PHD2) of 0.55 µM.
With O=C(O)CNC(=O)c1c(O)cc(CC2CCCCC2)n2ncnc12 [Example 28, [(5-cyclohexylmethyl-7-hydroxy[1,2,4]triazolo[1,5-a]pyridine-8-carbonyl)amino]acetic acid hydrochloride] the EC50 [1] was 13.9 µM and the IC50 (human PHD2) was 1.38 µM.
In the case of CCCCc1c(Cl)c(O)c(C(=O)NCC(=O)O)c2ncnn12 [Example 6, [(5-butyl-6-chloro-7-hydroxy[1,2,4]triazolo[1,5-a]pyridine-8-carbonyl)amino]acetic acid hydrochloride], the EC50 [1] is reported as 20.8 µM and the IC50 (human PHD2) is reported as 0.87 µM.
Molecule O=C(O)CNC(=O)c1c(O)cc(-c2cc(F)cc(Cl)c2)c2ncnn12 [Example 105, {[8-(3-chloro-5-fluorophenyl)-6-hydroxy[1,2,4]triazolo[1,5-a]pyridine-5-carbonyl]amino} acetic acid hydrochloride] has an EC50 [1] of 5.9 µM and an IC50 (human PHD2) of 0.1 µM.
Cl.O=C(O)CNC(=O)c1c(O)ccn2c(CCC3CCCCC3)nnc12 [Example 115, {[3-(2-cyclohexylethyl)-7-hydroxy[1,2,4]triazolo[4,3-a]pyridine-8-carbonyl]amino} acetic acid hydrochloride] was tested, and the “production activity (%) at 30 μM” value [1] was 0% and the IC50 (human PHD2) was 1.8 µM.
Molecule O=C(O)CNC(=O)c1c(O)cc(-c2ccc(C(F)(F)F)cc2)n2ncnc12 [Example 57, {[7-hydroxy-5-(4-trifluoromethyl-phenyl)[1,2,4]triazolo[1,5-a]pyridine-8-carbonyl]amino} acetic acid hydrochloride] has an EC50 [1] of 4.7 µM and an IC50 (human PHD2) of 0.2 µM.
C[C@@H](NC(=O)c1c(O)cc(CCc2ccccc2)n2ncnc12)C(=O)O [Example 70, (R)-2-[(7-hydroxy-5-phenethyl[1,2,4]triazolo[1,5-a]pyridine-8-carbonyl)amino] propionic acid hydrochloride] was tested, and the “production activity (%) at 30 μM” value [1] was 1% and the inhibition at 30 µM (human PHD2; at 30 μM, values containing %, read-out: inhibitory activity (%) at 30 μM in vitro, human PHD) was 38%.
Molecule O=C(O)CNC(=O)c1c(O)cc(CCc2ccc(F)cc2)c2ncnn12 [Example 90, ({8-[2-(4-fluorophenyl)-ethyl]-6-hydroxy[1,2,4]triazolo[1,5-a]pyridine-5-carbonyl}amino) acetic acid hydrochloride] has an EC50 [1] of 16.6 µM and an IC50 (human PHD2) of 0.29 µM.
With O=C(O)CNC(=O)c1c(O)cc(Cc2ccc(F)cc2)n2ncnc12 [Example 63, acetic acid hydrochloride] the EC50 [1] was 19.7 µM and the IC50 (human PHD2) was 0.36 µM.
In the case of CC(NC(=O)c1c(O)cc(-c2cc(F)cc(F)c2)n2ncnc12)C(=O)O (stereo not drawn) [Example 66, 2-{[5-(3,5-difluorophenyl)-7-hydroxy-[1,2,4]triazolo [1,5-a]pyridine-8-carbonyl]amino} propionic acid hydrochloride], the EC50 [1] is reported as 21.1 µM and the IC50 (human PHD2) is reported as 1.5 µM.
CCCCCCc1cc(O)c(C(=O)NCC(=O)O)c2ncnn12.Cl [Example 73, [(5-hexyl-7-hydroxy[1,2,4]triazolo[1,5-a]pyridine-8-carbonyl)amino] acetic acid hydrochloride] was tested, and the “production activity (%) at 30 μM” value [1] was 34% and the IC50 (human PHD2) was 7.09 µM.
O=C(O)CNC(=O)c1c(O)cc(-c2ccc(F)cc2F)n2ncnc12 [Example 77, {[5-(2,4-difluorophenyl)-7-hydroxy[1,2,4]triazolo[1,5-a]pyridine-8-carbonyl]amino} acetic acid hydrochloride] showed an EC50 [1] of 18.7 µM and an IC50 (human PHD2) of 0.24 µM.
Work on C[C@H](NC(=O)c1c(O)cc(CCc2ccccc2)n2ncnc12)C(=O)O [Example 69, (S)-2-[(7-hydroxy-5-phenethyl[1,2,4]triazolo[1,5-a]pyridine-8-carbonyl)amino] propionic acid hydrochloride] yielded an EC50 [1] of 12 µM and an IC50 (human PHD2) of 1.62 µM.
O=C(O)CNC(=O)c1c(O)cc(-c2cccc(C(F)(F)F)c2)c2ncnn12 [Example 110, {[6-hydroxy-8-(3-trifluoromethyl phenyl)[1,2,4]triazolo[1,5-a]pyridine-5-carbonyl]amino} acetic acid hydrochloride] was tested, and the EC50 [1] was 6.5 µM and the IC50 (human PHD2) was 0.15 µM.
Molecule Cc1cccc(-c2cc(O)c(C(=O)NCC(=O)O)c3ncnn23)c1 [Example 51, [(7-hydroxy-5-(m-tolyl)[1,2,4]triazolo[1,5-a]pyridine-8-carbonyl)amino] acetic acid hydrochloride] has an EC50 [1] of 9.1 µM and an IC50 (human PHD2) of 0.26 µM.
O=C(O)CNC(=O)c1c(O)cc(-c2ccc(F)c(Cl)c2)c2ncnn12 [Example 94, {[8-(3-chloro-4-fluorophenyl)-6-hydroxy[1,2,4]triazolo[1,5-a]pyridine-5-carbonyl]amino} acetic acid hydrochloride] was tested, and the EC50 [1] was 9.7 µM and the IC50 (human PHD2) was 0.11 µM.
O=C(O)CNC(=O)c1c(O)cc(-c2ccc(F)cc2)n2ncnc12 [Example 32, {[5-(4-fluorophenyl)-7-hydroxy[1,2,4]triazolo[1,5-a]pyridine-8-carbonyl]ammino}acetic acid hydrochloride] showed an EC50 [1] of 15.6 µM and an IC50 (human PHD2) of 0.38 µM.
